Experimental data reported in patent US11208386B2, “Inhibitors of protein arginine deiminases (PADs) and methods of preparation and use thereof” (University of Massachusetts, priority 2016, dated 2021).

Legend:
PAD3 = target: T1, PAD3 (Homo sapiens, UniProt Q9ULW8); assay: Inactivation kinetics, PAD3; format: biochemical; conditions: for kinact/KI: a: single kobs determined; for Fold PAD3 Selectivity: kinact/KI relative to least inhibited isozyme (1.0)
T1 construct: made in house
T1 sequence (Q9ULW8 1-664): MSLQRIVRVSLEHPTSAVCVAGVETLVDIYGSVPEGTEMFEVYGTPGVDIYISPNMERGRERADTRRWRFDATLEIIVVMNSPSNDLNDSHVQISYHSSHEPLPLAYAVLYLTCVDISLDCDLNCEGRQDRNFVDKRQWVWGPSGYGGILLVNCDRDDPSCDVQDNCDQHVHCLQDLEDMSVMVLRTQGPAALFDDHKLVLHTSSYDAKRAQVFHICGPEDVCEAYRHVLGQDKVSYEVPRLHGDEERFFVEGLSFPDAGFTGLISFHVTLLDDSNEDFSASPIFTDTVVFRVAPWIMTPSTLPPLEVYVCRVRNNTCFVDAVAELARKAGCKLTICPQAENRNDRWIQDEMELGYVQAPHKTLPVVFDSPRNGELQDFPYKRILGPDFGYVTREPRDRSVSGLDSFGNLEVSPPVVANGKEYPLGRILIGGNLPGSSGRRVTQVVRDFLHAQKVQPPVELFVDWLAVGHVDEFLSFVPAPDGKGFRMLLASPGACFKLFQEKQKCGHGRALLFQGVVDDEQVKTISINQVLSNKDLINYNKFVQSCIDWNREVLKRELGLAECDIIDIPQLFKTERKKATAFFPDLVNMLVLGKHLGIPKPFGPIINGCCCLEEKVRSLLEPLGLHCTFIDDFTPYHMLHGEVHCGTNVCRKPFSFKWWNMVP
Method in brief: (§1)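 PAD1, 2 or 4 (2.0 μM) or PAD3 (5.0 μM) preincubated at 37 °C with varying inhibitor in 50 mM HEPES, 10 mM CaCl2, 2 mM DTT, pH 7.6. Timed aliquots assayed 15 min with 10 mM BAEE (BAA for PAD3); citrulline quantified by COLDER.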

PAD2 [1] = target: T2, PAD2 (Homo sapiens, UniProt Q9Y2J8); assay: In vitro labeling of PAD2 with clickable probes to determine limit of detection; format: binding; conditions: probe clicked with TAMRA-N3
T2 construct: made in house
Procedure: In Vitro Labeling o f PAD2 with BB-F-Yne (5u) and BB-C-Yne (5v) to Determine their Limit of detection (LOD)
BB-F-Yne (5u) or BB-Cl-Yne (5v) (10 μM) were incubated with decreasing concentrations of recombinant PAD2 (1.0 to 0.025 μM) in the presence of CaCl2 in 1×PBS (2 mM) at 37° C. for 1 h. The probe labeled enzymes were coupled to TAMRA-N3 (20 μM) in the presence of 1×TBTA (0.31 mM), sodium ascorbate (2 mM) and freshly prepared CuSO4 (1 mM). The tubes were gently tumbled for 1 h. […] The bands were visualized by scanning the gel in a typhoon scanner (approximate excitation/emission maxima 546/579, respectively).

PAD4 = target: T3, PAD4 (Homo sapiens, UniProt Q9UM07); assay: Inactivation kinetics, PAD4; format: biochemical; conditions: for kinact/KI: a: single kobs determined, b: from a linear fit; for Fold PAD4 Selectivity: kinact/KI relative to least inhibited isozyme (1.0)
T3 construct: made in house
Method in brief: as §1

PAD1 = target: T4, PAD1 (Homo sapiens, UniProt Q9ULC6); assay: Inactivation kinetics, PAD1; format: biochemical; conditions: for kinact/KI: a: single kobs determined, b: from a linear fit; for Fold PAD1 Selectivity: kinact/KI relative to least inhibited isozyme (1.0)
T4 construct: made in house
T4 sequence (Q9ULC6 1-663): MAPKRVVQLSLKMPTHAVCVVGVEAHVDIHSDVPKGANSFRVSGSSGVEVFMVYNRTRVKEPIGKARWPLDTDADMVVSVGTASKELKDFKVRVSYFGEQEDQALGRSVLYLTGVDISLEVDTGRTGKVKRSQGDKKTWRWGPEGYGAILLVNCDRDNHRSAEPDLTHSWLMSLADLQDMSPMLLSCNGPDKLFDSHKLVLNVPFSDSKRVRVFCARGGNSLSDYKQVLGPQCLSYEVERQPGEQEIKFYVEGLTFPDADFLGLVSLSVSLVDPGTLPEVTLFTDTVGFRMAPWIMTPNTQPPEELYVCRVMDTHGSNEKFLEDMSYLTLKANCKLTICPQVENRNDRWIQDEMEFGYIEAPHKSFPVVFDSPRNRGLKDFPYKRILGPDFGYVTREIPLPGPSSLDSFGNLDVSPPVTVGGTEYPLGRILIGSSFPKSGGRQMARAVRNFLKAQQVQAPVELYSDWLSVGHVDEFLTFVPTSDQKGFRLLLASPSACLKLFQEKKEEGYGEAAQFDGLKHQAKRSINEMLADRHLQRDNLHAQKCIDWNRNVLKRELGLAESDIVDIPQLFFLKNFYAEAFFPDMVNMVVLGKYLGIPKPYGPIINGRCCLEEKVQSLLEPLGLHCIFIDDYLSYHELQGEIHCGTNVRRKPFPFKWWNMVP
Method in brief: as §1

PAD2 [2] = target: T2, PAD2; assay: Inactivation kinetics, PAD2; format: biochemical; conditions: for kinact/KI: a: single kobs determined, b: from a linear fit, other footnotes: from kinact and KI; for Fold PAD2 Selectivity: kinact/KI relative to least inhibited isozyme (1.0)
Method in brief: as §1

[3] = cited from earlier work

T3 sequence (Q9UM07 whole entry): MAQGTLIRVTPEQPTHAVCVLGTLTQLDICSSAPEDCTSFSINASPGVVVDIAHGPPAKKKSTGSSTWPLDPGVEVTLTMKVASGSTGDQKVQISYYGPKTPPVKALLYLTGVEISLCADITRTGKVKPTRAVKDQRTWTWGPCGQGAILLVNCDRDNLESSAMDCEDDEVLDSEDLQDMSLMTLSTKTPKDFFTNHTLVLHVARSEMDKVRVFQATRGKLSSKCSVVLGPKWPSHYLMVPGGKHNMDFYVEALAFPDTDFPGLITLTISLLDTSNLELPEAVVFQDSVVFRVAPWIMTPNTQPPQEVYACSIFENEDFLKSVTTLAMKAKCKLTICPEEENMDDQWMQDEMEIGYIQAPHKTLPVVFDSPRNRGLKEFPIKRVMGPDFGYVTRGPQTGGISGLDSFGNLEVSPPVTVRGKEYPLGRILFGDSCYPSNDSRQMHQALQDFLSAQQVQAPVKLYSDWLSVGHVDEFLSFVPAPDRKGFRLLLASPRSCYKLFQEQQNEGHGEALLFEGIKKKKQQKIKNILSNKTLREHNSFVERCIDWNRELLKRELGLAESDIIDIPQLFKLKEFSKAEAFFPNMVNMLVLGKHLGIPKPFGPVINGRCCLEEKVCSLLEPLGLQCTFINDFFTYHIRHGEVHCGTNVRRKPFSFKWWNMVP
T2 sequence (Q9Y2J8 whole entry): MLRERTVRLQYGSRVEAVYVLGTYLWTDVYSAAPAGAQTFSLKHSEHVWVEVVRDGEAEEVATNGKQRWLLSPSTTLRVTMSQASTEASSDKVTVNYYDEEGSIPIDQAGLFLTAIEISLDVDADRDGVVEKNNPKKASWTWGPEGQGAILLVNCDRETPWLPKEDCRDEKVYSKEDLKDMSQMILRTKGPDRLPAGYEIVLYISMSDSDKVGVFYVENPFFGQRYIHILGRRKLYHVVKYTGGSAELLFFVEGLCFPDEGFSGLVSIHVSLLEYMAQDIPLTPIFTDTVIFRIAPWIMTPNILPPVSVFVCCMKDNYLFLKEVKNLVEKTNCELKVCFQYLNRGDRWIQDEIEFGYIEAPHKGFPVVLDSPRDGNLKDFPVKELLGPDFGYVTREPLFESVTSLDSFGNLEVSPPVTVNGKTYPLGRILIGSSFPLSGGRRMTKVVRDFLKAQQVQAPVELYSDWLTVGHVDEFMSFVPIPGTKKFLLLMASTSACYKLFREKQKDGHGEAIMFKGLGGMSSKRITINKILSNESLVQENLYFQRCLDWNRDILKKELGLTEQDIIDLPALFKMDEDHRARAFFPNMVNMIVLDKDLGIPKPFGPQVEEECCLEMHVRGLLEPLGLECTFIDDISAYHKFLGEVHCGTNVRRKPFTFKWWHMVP

| Compound | kinact/KI (PAD3) | Fold PAD3 Selectivity (PAD3) | limit of detection (LOD) for PAD2 (PAD2 [1]) | kinact/KI (PAD4) | Fold PAD4 Selectivity (PAD4) | kinact/KI (PAD1) | Fold PAD1 Selectivity (PAD1) | kinact/KI (PAD2 [2]) | Fold PAD2 Selectivity (PAD2 [2]) | efficacy in an RA model ([3]; in vivo) | efficacy in animal models ([3]; rheumatoid arthritis, lupus, ulcerative colitis, spinal cord injury, breast cancer, atherosclerosis) |
| --- | --- | --- | --- | --- | --- | --- | --- | --- | --- | --- | --- |
| C#Cc1ccc(-c2ccc(C(=O)N[C@@H](CCCNC(=N)CF)c3nc4ccccc4[nH]3)cc2)cc1 [Compound 5u, N1-4′-ethynyl-[1,1′-Phenyl]benzol-N5-(2-fluoro-1-iminoethyl)-1-(1H-benzo[d]imidazol-2-yl)-L-ornithine] | 17.1 M⁻¹ s⁻¹ | 1.1 fold | 375 fmol | 29.5 M⁻¹ s⁻¹ | 1.8 fold | 77.5 M⁻¹ s⁻¹ | 4.8 fold | 16.2 M⁻¹ s⁻¹ | 1.0 fold | – | – |
| GSK199 | – | – | – | – | – | – | – | – | – | shows efficacy | – |
| N=C(CCl)NCCC[C@H](NC(=O)c1ccccc1)C(N)=O [Cl-amidine] | – | – | – | – | – | – | – | – | – | – | demonstrated efficacy |
| CCN1Cc2cccc(C(=O)N[C@@H](CCCNC(=N)CCl)c3nc4cc(OC)ccc4n3C)c2C1=O [Compound 8p, N1-(2-ethyl-3-oxoisoindoline)benzoyl-N5-(2-chloro-1-iminoethyl)-1-(5-methoxy-1-methyl-benzo[d]imidazol-2-yl)-L-ornithine] | 296 M⁻¹ s⁻¹ | 9.3 fold | – | 31.7 M⁻¹ s⁻¹ | 1.0 fold | 1180 M⁻¹ s⁻¹ | 37 fold | 1020 M⁻¹ s⁻¹ | 32 fold | – | – |
| N=C(CCl)NCCC[C@H](NC(=O)c1ccc(-c2ccccc2)cc1)c1nc2cc(F)c(F)cc2[nH]1 [Compound 5r, N1-[1,1′-Phenyl]benzoyl-N5-(2-chloro-1-iminoethyl)-1-(5,6-difluoro-1H-benzo[d]imidazol-2-yl)-L-ornithine] | 239 M⁻¹ s⁻¹ | 2.6 fold | – | 337 M⁻¹ s⁻¹ | 3.6 fold | 457 M⁻¹ s⁻¹ | 4.9 fold | 93.3 M⁻¹ s⁻¹ | 1.0 fold | – | – |
| COc1cccc2c1nc([C@H](CCCNC(=N)CCl)NC(=O)c1ccc(-c3ccccc3)cc1)n2C [Compound 5n, N1-[1,4′-Phenyl]benzoyl-N5-(2-chloro-1-iminoethyl)-1-(4-methoxy-1-methyl-benzo[d]imidazol-2-yl)-L-ornithine] | 91.7 M⁻¹ s⁻¹ | 1.0 fold | – | 132 M⁻¹ s⁻¹ | 1.4 fold | 580 M⁻¹ s⁻¹ | 6.3 fold | 463 M⁻¹ s⁻¹ | 5.1 fold | – | – |
